# Measured values reported in publication PMC5579037, “Modification of the response of olfactory receptors to acetophenone by CYP1a2” (Scientific Reports, 2017).
# Assays:
# Assay type in all cases: cell-based
# MOR161-2 = biological target: T1, MOR161-2 (Mus musculus, UniProt Q7TRE6); assay: CRE-luciferase reporter assay in Hana3A cells; details: no CYP co-expressed; RTP1S and M3-R; 3 h, 37 °C; agonist
# T1 construct: gene Or8b12; Hana3A cells with RTP1S and M3-R
# T1 sequence (Q7TRE6 1-310): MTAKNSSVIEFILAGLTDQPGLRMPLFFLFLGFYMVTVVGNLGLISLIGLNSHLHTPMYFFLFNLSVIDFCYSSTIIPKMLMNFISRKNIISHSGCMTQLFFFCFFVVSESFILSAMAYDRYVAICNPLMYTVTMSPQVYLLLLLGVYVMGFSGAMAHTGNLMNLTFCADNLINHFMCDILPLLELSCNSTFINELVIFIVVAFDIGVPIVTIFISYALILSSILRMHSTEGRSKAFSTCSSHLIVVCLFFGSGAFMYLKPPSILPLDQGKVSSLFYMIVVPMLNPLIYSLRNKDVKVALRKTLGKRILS
# MOR123-2 = biological target: T2, MOR123-2 (Mus musculus, UniProt E9Q8M2); assay: CRE-luciferase reporter assay in Hana3A cells; details: no CYP co-expressed; RTP1S and M3-R; 3 h, 37 °C; agonist
# T2 construct: gene Or10aa3; ORF from mouse genomic DNA, N-terminal Rho-tag, pCI; Hana3A cells with RTP1S and M3-R
# T2 sequence (E9Q8M2 1-312): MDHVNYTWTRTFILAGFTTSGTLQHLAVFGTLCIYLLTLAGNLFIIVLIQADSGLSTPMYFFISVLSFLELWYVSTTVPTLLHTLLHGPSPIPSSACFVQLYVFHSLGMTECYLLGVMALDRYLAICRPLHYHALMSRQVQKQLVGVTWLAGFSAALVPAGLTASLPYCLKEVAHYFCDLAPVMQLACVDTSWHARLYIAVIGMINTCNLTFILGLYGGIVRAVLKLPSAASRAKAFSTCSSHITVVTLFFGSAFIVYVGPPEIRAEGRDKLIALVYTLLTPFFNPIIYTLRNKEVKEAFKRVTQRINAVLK
# MOR164-2 = biological target: T3, MOR164-2 (Mus musculus, UniProt Q7TRB9); assay: CRE-luciferase reporter assay in Hana3A cells; details: no CYP co-expressed; RTP1S and M3-R; 3 h, 37 °C; agonist
# T3 construct: gene Or8b56; ORF from mouse genomic DNA, N-terminal Rho-tag, pCI; Hana3A cells with RTP1S and M3-R
# T3 sequence (Q7TRB9 1-317): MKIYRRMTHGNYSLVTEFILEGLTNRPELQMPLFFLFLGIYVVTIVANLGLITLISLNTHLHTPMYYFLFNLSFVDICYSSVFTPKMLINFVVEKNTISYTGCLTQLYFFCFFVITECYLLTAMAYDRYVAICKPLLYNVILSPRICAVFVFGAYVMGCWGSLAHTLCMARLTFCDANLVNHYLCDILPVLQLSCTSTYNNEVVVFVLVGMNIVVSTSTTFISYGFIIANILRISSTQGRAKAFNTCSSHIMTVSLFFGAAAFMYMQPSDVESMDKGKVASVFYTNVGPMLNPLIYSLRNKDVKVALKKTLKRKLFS
# CYP1a2 = biological target: T4, CYP1a2 (Mus musculus, UniProt P00186); assay: P450-Glo luminescence assay in transfected Hana3A cells; details: CD293 medium, 3 h, 37 °C; against mock transformant
# T4 construct: cDNA from mouse olfactory epithelium library, pCI vector, expressed in Hana3A cells
# T4 sequence (P00186 2-513): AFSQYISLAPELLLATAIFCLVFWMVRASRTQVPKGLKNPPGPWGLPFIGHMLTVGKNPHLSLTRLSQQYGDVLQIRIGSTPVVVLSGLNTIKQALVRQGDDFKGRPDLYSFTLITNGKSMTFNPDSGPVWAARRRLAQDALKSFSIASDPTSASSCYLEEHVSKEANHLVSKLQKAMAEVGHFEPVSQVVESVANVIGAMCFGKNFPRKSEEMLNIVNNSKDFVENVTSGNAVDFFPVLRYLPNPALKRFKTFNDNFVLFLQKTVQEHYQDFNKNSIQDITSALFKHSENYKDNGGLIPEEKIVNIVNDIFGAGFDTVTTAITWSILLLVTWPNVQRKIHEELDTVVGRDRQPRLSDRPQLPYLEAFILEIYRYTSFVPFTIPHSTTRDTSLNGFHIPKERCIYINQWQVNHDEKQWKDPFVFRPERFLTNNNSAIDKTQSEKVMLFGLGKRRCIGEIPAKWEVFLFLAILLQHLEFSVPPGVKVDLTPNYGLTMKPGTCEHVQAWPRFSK
smiles,measurement,setting,value
CC(=O)c1ccccc1 [acetophenone],CRE-luciferase reporter assay in Hana3A cells,MOR161-2,We compared the response of MOR161-2 against acetophenone and methyl salicylate.
same,CRE-luciferase reporter assay in Hana3A cells,MOR123-2,"We observed effects of CYPs on the responses of MOR123-2, MOR161-2 and MOR164-2."
same,CRE-luciferase reporter assay in Hana3A cells,MOR164-2,"We observed effects of CYPs on the responses of MOR123-2, MOR161-2 and MOR164-2."
COc1ccc2nc(C3=NC(C(=O)O)CS3)sc2c1 (stereo not shown) [luciferin-ME],P450-Glo luminescence assay in transfected Hana3A cells,CYP1a2,Functional expression of CYP1a2 in Hana3A cells was confirmed by the P450-Glo assay using luciferin-ME
COC(=O)c1ccccc1 [methyl benzoate],CRE-luciferase reporter assay in Hana3A cells,MOR161-2,"Potential intermediates are methyl benzoate and salicylate, and indeed MOR161-2 responded to both of them."
COC(=O)c1ccccc1O [methyl salicylate],CRE-luciferase reporter assay in Hana3A cells,MOR161-2,MOR161-2 showed a larger response to methyl salicylate than acetophenone.
O=C(O)c1ccccc1O [salicylic acid],CRE-luciferase reporter assay in Hana3A cells,MOR161-2,"Potential intermediates are methyl benzoate and salicylate, and indeed MOR161-2 responded to both of them."
